≈ marks a conversion by molar mass, not a printed value.
Columns and labels:
[Candida] auris [1] = Antifungal activity against Candida auris CDC0385 assessed as lowest compound concentration required to inhibit 50 % growth; assay type: functional, Candidozyma auris
[Candida] auris [2] = Antifungal activity against Candida auris CDC0381 assessed as growth inhibition; assay type: functional, organism-based; conditions: Candidozyma auris
[Candida] auris [3] = Antifungal activity against Candida auris ATCC 6258 assessed as lowest compound concentration required to inhibit 90 % growth; assay type: functional, Candidozyma auris
[4] = Selectivity index, ratio of IC50 for cytotoxicity against human HepG2 cells to IC50 for antifungal activity against Candida auris CDC0385; assay type: toxicity, cell-based; conditions: read-out: Ratio IC50
[Candida] auris [5] = Antifungal activity against Candida auris CDC0381 assessed as lowest compound concentration required to inhibit 90 % growth; assay type: functional, Candidozyma auris
[Candida] auris [6] = Antifungal activity against Candida auris CDC0381 assessed as lowest compound concentration required to inhibit 50 % growth; assay type: functional, Candidozyma auris
[Candida] auris [7] = Antifungal activity against Candida auris CDC0385 assessed as growth inhibition; assay type: functional, organism-based; conditions: Candidozyma auris
[8] = Cytotoxicity against human HepG2 cells assessed as growth inhibition by XTT assay; assay type: toxicity, cell-based
[Candida] auris [9] = Antifungal activity against Candida auris ATCC 6258 assessed as lowest compound concentration required to inhibit 50 % growth; assay type: functional, Candidozyma auris
[Candida] auris [10] = Antifungal activity against Candida auris CDC0385 assessed as lowest compound concentration required to inhibit 90 % growth; assay type: functional, Candidozyma auris
[Candida] auris [11] = Antifungal activity against Candida auris ATCC 6258 assessed as growth inhibition; assay type: functional, organism-based; conditions: Candidozyma auris

Row | Compound | INH ([Candida] auris [1]) | IC50 ([Candida] auris [2]) | IC90 ([Candida] auris [2]) | INH ([Candida] auris [3]) | selectivity ratio [4] | INH ([Candida] auris [5]) | INH ([Candida] auris [6]) | IC50 ([Candida] auris [7]) | IC90 ([Candida] auris [7]) | IC50 [8] | INH ([Candida] auris [9]) | INH ([Candida] auris [10]) | IC50 ([Candida] auris [11]) | IC90 ([Candida] auris [11])
1 | Fc1ccc2[nH]cc(-c3ccsc3Br)c2c1 | 32 µg/mL | 9.85 µg/mL (≈ 33.3 µM) | 15.7 µg/mL (≈ 53 µM) | >64 µg/mL | > 3.41 | 16 µg/mL | 16 µg/mL | 29.3 µg/mL (≈ 98.9 µM) | > 64 µg/mL | > 100 µM | 64 µg/mL | >64 µg/mL | 32.2 µg/mL (≈ 109 µM) | > 64 µg/mL
2 | NC1CCCc2ccc(C3=NSC(c4cc(Cl)c(F)c(Cl)c4)(C(F)(F)F)C3)cc21 (stereo not given) | 4 µg/mL | 1.43 µg/mL (≈ 3.09 µM) | 1.71 µg/mL (≈ 3.69 µM) | 4 µg/mL | 6.29 | 2 µg/mL | 2 µg/mL | 2.09 µg/mL (≈ 4.51 µM) | 2.3 µg/mL (≈ 4.96 µM) | 13.2 µM | 4 µg/mL | 4 µg/mL | 2.11 µg/mL (≈ 4.55 µM) | 2.62 µg/mL (≈ 5.65 µM)
3 | Clc1cc2c(c3ncccc13)OCN(CCc1ccccc1)C2 | 4 µg/mL | 2 µg/mL (≈ 6.16 µM) | 2.13 µg/mL (≈ 6.56 µM) | 4 µg/mL | 10.6 | 4 µg/mL | 4 µg/mL | 2.14 µg/mL (≈ 6.59 µM) | 3.88 µg/mL (≈ 11.9 µM) | 22.7 µM | 2 µg/mL | 4 µg/mL | 1.98 µg/mL (≈ 6.1 µM) | 2.2 µg/mL (≈ 6.77 µM)
4 | Cc1cc(Nc2ccccc2C)n(-c2nc(=O)cc(C)[nH]2)n1 | 2 µg/mL | 0.85 µg/mL (≈ 2.88 µM) | 1.93 µg/mL (≈ 6.53 µM) | 4 µg/mL | > 69 | 4 µg/mL | 1 µg/mL | 1.45 µg/mL (≈ 4.91 µM) | 6.05 µg/mL (≈ 20.5 µM) | > 100 µM | 2 µg/mL | 8 µg/mL | 1.42 µg/mL (≈ 4.81 µM) | 2.38 µg/mL (≈ 8.06 µM)
5 | CCCCCn1nc(-c2ccc(Cl)cc2)cnc1=O | 2 µg/mL | 0.72 µg/mL (≈ 2.59 µM) | 1.59 µg/mL (≈ 5.72 µM) | 2 µg/mL | 1.5 | 4 µg/mL | 1 µg/mL | 1.8 µg/mL (≈ 6.48 µM) | 3.64 µg/mL (≈ 13.1 µM) | 2.07 µM | 1 µg/mL | 4 µg/mL | 0.76 µg/mL (≈ 2.74 µM) | 1.05 µg/mL (≈ 3.78 µM)
6 | COCc1ncnc(NC(C)CC#Cc2ccc(Oc3ccc(C(F)(F)F)cn3)cc2)c1OC (stereo not given) | 0.5 µg/mL |  |  | >64 µg/mL | > 222 | 1 µg/mL | <0.125 µg/mL | 0.45 µg/mL (≈ 0.952 µM) | 4.61 µg/mL (≈ 9.76 µM) | > 100 µM | >64 µg/mL | 8 µg/mL |  | 
7 | C[C@@H]1[C@H](O)[C@@H](C)/C=C/C=C/C=C/C=C/C=C/C=C/C=C/[C@H](O[C@@H]2O[C@H](C)[C@@H](O)[C@H](N)[C@@H]2O)C[C@@H]2O[C@](O)(C[C@@H](O)C[C@@H](O)[C@H](O)CC[C@@H](O)C[C@@H](O)CC(=O)O[C@H]1C)C[C@H](O)[C@H]2C(=O)O [AMPHOTERICIN B] | 1 µg/mL | 0.2 µg/mL (≈ 0.216 µM) | 0.39 µg/mL (≈ 0.422 µM) | 1 µg/mL |  | 0.5 µg/mL | 0.25 µg/mL | 0.54 µg/mL (≈ 0.584 µM) | 0.83 µg/mL (≈ 0.898 µM) |  | 0.5 µg/mL | 1 µg/mL | 0.49 µg/mL (≈ 0.53 µM) | 0.54 µg/mL (≈ 0.584 µM)
8 | C1CCC(C(CC2CCCCN2)C2CCCCC2)CC1 (stereo not given) [PERHEXILINE] |  |  |  |  |  |  |  |  |  | 11.3 µM |  |  |  | 
9 | C[C@@H](c1ncncc1F)[C@](O)(Cn1cncn1)c1ccc(F)cc1F [VORICONAZOLE] | 4 µg/mL | 0.01 µg/mL (≈ 0.0286 µM) | 0.55 µg/mL (≈ 1.57 µM) | 1 µg/mL |  | 4 µg/mL | 0.016 µg/mL | 2.94 µg/mL (≈ 8.42 µM) | > 4 µg/mL |  | 0.25 µg/mL | >4 µg/mL | 0.2 µg/mL (≈ 0.573 µM) | 0.76 µg/mL (≈ 2.18 µM)
